According to patent publication US20250073302A1, “CYCLIC PEPTIDES AS PROTEASOME STIMULATORS” (Purdue Research Foundation, priority 2023, published 2025):
Where “and” joins values, the source holds several entries; their conditions need not be identical. Equal values may be shown once. Non-standard residues stand in square brackets, D forms with d. Residues, ends and D or L forms follow the SMILES beside them. aThr = C[C@H](O)[C@H](N)C(=O)O; dPra = C#CC[C@@H](N)C(=O)O; dDap = NC[C@@H](N)C(=O)O

Assays:
proteasome [1] = conditions: background statement; cited from earlier work
20S CP [2] = biological target: T1, 20S CP; test: TAS-1 biochemical assay (20S CP stimulation); parameters: key to Emax: % of DMSO control rate (percent stimulation); key to TAS-1: % of DMSO control rate of TAS-1 hydrolysis; conditions: for EC50: dose-response curve; for EC50 / Emax: 20S CP stimulation; for Emax: maximal response of dose-response curve, in %; for TAS-1: percent stimulation of 20S CP, rate of TAS-1 hydrolysis normalized against DMSO, compounds tested at 10 μM, 5 nM 20S CP
T1 construct: purchased South Bay
Experimental: Each compound was initially tested at 10 μM. Each well contained […] of 11.4 μM TAS-1 solution in Tris HCl (50 mM, pH 7.4) along with 5 nM of 20 sCP (South Bay). 1 μL of the test compound, control, or DMSO was added to the desired well to obtain a final DMSO concentration of 2%, with the total volume being 50 μL. Compounds were tested in three replicates that each had technical triplicates. The fluorescence was recorded using a SynergyNeo 2, where the excitation and emission was set to 335 nm and 493 nm. The plate reader was heated to 37° C. The fluorescence was recorded every 90 seconds over a 1-hour period. A simple linear regression was performed on the data plotted against time to obtain the rate of hydrolysis of TAS-1 by the 20S CP. The data was then normalized against DMSO to get the percent stimulation.

[3] = test system: T2, cytosolic proteasome in HEK293 T cells; test: Flow cytometry assay of proteasome stimulation in cellulo (epoxomicin probe); assay type: cell-based; conditions: for In-Cellulo: 10 μM stimulator, 2.5 μM epoxomicin probe, 1 hour, flow cytometry (FITC); for cellular stimulation of the proteasome (in words): 10 μM, flow cytometry
T2 construct: endogenous in cells; host or cells: HEK 293T
Text: Flow cytometry allows for the study of proteasomal activity in physiologically relevant conditions and presents a high-throughput alternative to traditional gel electrophoresis and western blotting techniques. To test the assay, the covalent fluorescent-based probe was applied in HEK293 T cells to quantify proteasome stimulation of CyPPSs alone and in the presence of the known proteasome stimulator miconazole and the known proteasome inhibitor MG132. The covalent fluorescent-based probe utilized an epoxy-ketone warhead that interacts with the β5 subunit of the proteasome, forming a covalent attachment and fluorescently tagging the proteasome. The addition of the CyPPSs induces a significant shift in the intracellular fluorescence (FIG. 6). This shift validated that CyPPSs can stimulate cytosolic proteasome in cellulo. […] However, their activity was lower than what would be expected based on their in vitro activity. This may be due to incomplete cellular uptake or escape from the endosomes. […] This is likely due to a combination of effects, including the inability to stimulate the proteasome (FIGS. 2A and 2B) as well as the generally poor cell permeability and stability of linear peptides.
Confluent HEK 293T cells were seeded into sterilized 2 mL Fisherbrand Eppendorf tubes in FBS free Dulbecco's Modified Eagle Medium (DMEM) at a concentration of 300,000 cells per tube. The cells were centrifuged at 1000 g for 5 minutes. The supernatant was removed, and the cells were resuspended in 500 μL of a 10 μM stimulator solution in FBS free DMEM. Cells were spun down at 1000 g for 5 minutes, and the supernatant was again removed. Cells were then resuspended in 500 μL of a 10 μM stimulator 2.5 μM epoxomicin probe in FBS-free DMEM and incubated for 1 hour at 37° C. Cells were again centrifuged at 1000 g for 5 minutes. Supernatant was then removed, and cells were washed once with cold PBS. Cells were then resuspended in 50 μL of cold PBS and placed on ice. Cellular fluorescence was measured by collecting 50,000 events using the FITC channel of a BD Accuri C6 Flow Cytometer and analyzed using FlowJo.

human red blood cells = test: Hemolysis assay; assay type: cell-based; conditions: percent hemolysis, 1 hour at 37° C., table title 15 uM, method 20 μM, in %
Experimental: Whole human blood was purchased at BiolVT and used prior to its expiration. 100 μL blood was added to a 1.5 mL Eppendorf tub with 500 μL of sterile 0.9% NaCl. The tube was inverted multiple times to mix the solution. This mixture was centrifuged at 500 g for 7 minutes. The supernatant was extracted utilizing a pipette. The pellet was washed 2 more times. After the final wash, 800 μL of Red Blood Cell (RBC) buffer was added to the pellet to resuspend the red blood cells. 4 μL of the compounds (20 μM in DMSO, final concentration), 76 μL RBC buffer, and 40 μL resuspended red blood cells were added to a 96 U-well plate (VWR) and incubated for 1 hour at 37° C. The plate was spun at 500 g for 5 minutes. […] of the supernatant was transferred to a 96 flat-well plate. The absorbance was read at 540 nm utilizing a SpectraMax iD3 platereader. Percent hemolysis was measured from the average absorbance of the positive and negative controls. A minimum of 3 biological triplicates were performed.

20S CP [4] = test system: T1, 20S CP; test: Purified protein degradation assay; assay type: biochemical; conditions: 10 uM CyPPS, 5 nM 20S CP, 200 ng purified protein, 1 hour at 37° C.; for proteasomal degradation of α-synuclein: highly disordered protein; for proteasomal degradation of GAPDH / proteasomal degradation of lysozyme: low disordered protein
Experimental: Proteins were diluted to 50 ng/μL in Tris HCl (50 mM, pH 7.6). The CyPPS were diluted to 30 μM in Tris HCl, with 6% DMSO. The 20S CP (South Bay) was diluted to 15 nM with Tris HCl. Each protein was performed with a latent level, basal level, and CyPPS in triplicate. The latent level was prepared with 4 μL protein and 8 μL of 3% DMSO in Tris HCl. The basal level contained 4 μL protein, 4 μL 20S CP, and 4 μL 6% DMSO in Tris HCl. The CyPPS was performed with 4 μL protein, 4 μL 20S CP, and 4 μL 30 μM CyPPS. The samples were incubated for 1 hour at 37° C. 4 μL of 4×SDS gel loading buffer was added and heated for 5 minutes at 95° C. The samples were run on a 15-well gradient gel for SDS-PAGE, stained with Coomassie, imaged with an imaging system, and quantified with ImageJ. Analysis was done via GraphPad PRISM9.

proteasome [5] = conditions: background statement; cited from earlier work; remark: listed apart in the source

| Structure (SMILES) | potency as proteasome stimulator (in words) (proteasome [1]) | EC50 (20S CP [2]) | percent stimulation of the proteasome in the SNaPP library screen (20S CP [2]; library of 45 cyclic peptides, TAS-1 assay) | Emax (20S CP [2]) | TAS-1 (20S CP [2]) | In-Cellulo [3] | cellular stimulation of the proteasome (in words) [3] | Hemolysis (human red blood cells) | proteasomal degradation of α-synuclein (20S CP [4]) | proteasomal degradation of GAPDH (20S CP [4]) | proteasomal degradation of lysozyme (20S CP [4]) | 20S CP stimulatory activity (in words, SAR compared to CyPPS1) (20S CP [2]; TAS-1 assay) | activity in cell-based assays (in words) (proteasome [5]) |
| --- | --- | --- | --- | --- | --- | --- | --- | --- | --- | --- | --- | --- | --- |
| CCCCC/C=C\C/C=C\C/C=C\C/C=C\CCCC(=O)Nc1ccc(O)cc1 [AM-404] | lack of potency | – | – | – | – | – | – | – | – | – | – | – | – |
| CC(C)C[C@H]1NC(=O)[C@H]([C@H](C)O)NC(=O)[C@@H](C)NC(=O)[C@H](CCCNC(=N)N)NC(=O)[C@@H](Cc2ccccc2)NC(=O)[C@H](Cc2ccccc2)NC1=O [CyPPS1, TLFFRA [SEQ ID NO: 1]] (cyclo(F[dF]R[dA][aThr][dL])) | – | 6.4 µM | highest percent stimulation | 282.9 | 339.5 ± 15.7 | 235.1 ± 5.5 | significant cellular stimulation of the proteasome | 13 ± 1 | greatly enhanced | little-to-no effect | little-to-no effect | – | – |
| CC(C)C[C@H]1NC(=O)[C@H](CC(=O)O)NC(=O)[C@@H](C)NC(=O)[C@H](CCCNC(=N)N)NC(=O)[C@@H](Cc2ccccc2)NC(=O)[C@H](Cc2ccccc2)NC1=O [CyPPS8, DLFFRA [SEQ ID NO: 8]] (cyclo(D[dL]F[dF]R[dA])) | – | 14.2 µM | – | 701.4 | 372.2 ± 12.1 | 161.0 ± 31.7 | – | 0 ± 0 | – | – | – | maintained stimulatory activity | – |
| CC(C)[C@H]1NC(=O)[C@H]([C@@H](C)O)NC(=O)[C@@H](C)NC(=O)[C@H](CCCNC(=N)N)NC(=O)[C@@H](Cc2ccccc2)NC(=O)[C@H](Cc2ccccc2)NC1=O [CyPPS13, TVFFRA [SEQ ID NO: 13]] (cyclo(T[dV]F[dF]R[dA])) | – | 4.1 µM and 4 µM | – | 393 and 393.8 | 422.4 ± 18.5 | 173.7 ± 13.0 | – | 5 ± 2 | – | – | – | retained activity | – |
| C#CC[C@H]1NC(=O)[C@H]([C@@H](C)O)NC(=O)[C@@H](C)NC(=O)[C@H](CCCNC(=N)N)NC(=O)[C@@H](Cc2ccccc2)NC(=O)[C@H](Cc2ccccc2)NC1=O [CyPPS14, TXFFRA [SEQ ID NO: 14]] (cyclo(T[dPra]F[dF]R[dA])) | – | 12.1 µM | – | 513.6 | 387.9 ± 2.7 | 231.4 ± 31.7 | significant cellular stimulation of the proteasome | 2 ± 1 | greatly enhanced | little-to-no effect | little-to-no effect | retained stimulatory activity | – |
| CC(C)C[C@H]1NC(=O)[C@H]([C@@H](C)O)NC(=O)[C@@H](CN)NC(=O)[C@H](CCCNC(=N)N)NC(=O)[C@@H](Cc2ccccc2)NC(=O)[C@H](Cc2ccccc2)NC1=O [CyPPS23, TLFFRX [SEQ ID NO: 23]] (cyclo(T[dL]F[dF]R[dDap])) | – | 4 µM and 4.1 µM | – | 391 and 390.9 | 352.4 ± 39.1 | 247.3 ± 15.4 | significant cellular stimulation of the proteasome | 20 ± 4 | greatly enhanced | little-to-no effect | little-to-no effect | maintained stimulatory activity | – |
| CC(C)c1ccc2c(c1)c(SC(C)(C)C)c(CC(C)(C)C(=O)O)n2Cc1ccc(Cl)cc1 [MK-866] | – | – | – | – | – | – | – | – | – | – | – | – | inactivity in cell-based assays |
| CN(C)CCCN1c2ccccc2Sc2ccc(Cl)cc21 [chloropromazine] | – | – | – | – | – | – | – | – | – | – | – | – | inactivity in cell-based assays |
| Clc1ccc(COC(Cn2ccnc2)c2ccc(Cl)cc2Cl)c(Cl)c1 (centres unmarked) [miconazole] | lack of potency | – | – | – | – | – | – | – | – | – | – | – | – |
| C[C@H]1[C@H](C)CC[C@]2(C(=O)O)CC[C@]3(C)C(=CC[C@@H]4[C@@]5(C)CC[C@H](O)C(C)(C)[C@@H]5CC[C@]43C)[C@H]12 [ursolic acid] | lack of potency | – | – | – | – | – | – | – | – | – | – | – | – |
